Experimental data as given in patent US12403184B2, “Compositions and methods for treating neurodegenerative disroders” (priority 2018, dated 2025).
Where no end group is shown, it is not given here.

Experiments:
Drp1 = Drp1 (Homo sapiens, UniProt O00429); experiment: Drp1 GTP hydrolysis in vitro; assay type: biochemical
From the text: Drp1 GTP hydrolysis was monitored as a function of time as described previously.

HdhQ111 cells [1] = experiment: Mitochondrial morphology (anti-Tom20 staining) in striatal cells; assay type: cell-based, mouse; conditions: 1 μM/day for 4 days, relative to TAT
Method: Mouse striatal cell lines HdhQ7 and Q111 cells are immortalized from knock-in mice carrying 7 and 111 CAG repeats, respectively, in the mouse htt gene. HdhQ7 and HdhQ111 purchased from CHDI Foundation were cultured in DMEM supplemented with 10% (v/v) heat-inactivated FBS, 1% (v/v) penicillin/streptomycin, and 400 μg/ml G418 at 33° C. with 5% CO2. Cells within 14 passages were used in all experiments.
Cells grown on coverslips were fixed with 4% paraformaldehyde for 20 mins at r.t., permeabilized with 0.1% Triton X-100 in PBS and blocked with 2% normal goat serum. The cells were then incubated with primary antibody (overnight, at 4° C.) followed by Alexa Fluor 568 or 488 secondary antibody (2 h, r.t.). After staining with Nuclei with Hoechst dye (1:10,000 dilution), the cells were mounted onto slides. The cells were imaged by Fluoview FV1000 microscopy (Olympus).

TFAM and mtDNA LSP = experiment: TFAM-mtDNA binding assay (biotin-streptavidin pull down); assay type: cell-based, mouse; conditions: HdhQ111 cells, relative to TAT
Method: Total lysates were isolated from cells with the indicated treatments, and then incubated with biotinylated LSP DNA probe (Biotin-LSP) or LSP (control) overnight at 4° C. Then streptavidin agarose beads (Thermo Fisher Scientific) were added for 1 h at 4° C. After incubation, the biotinstreptavidin complex was washed 3-5 times (1 ml/time) at 4° C. and subject to western blot analysis. To validate the LSP binding specificity to TFAM, 10 times (molar ratio) of non-labeled LSP was pre-incubated with an equal amount of lysate for 2 h prior to addition of the biotin-LSP probe.

mtDNA = experiment: Measurement of mtDNA content; assay type: cell-based, mouse; conditions: HdhQ111 cells, relative to TAT
Method: Total DNA was isolated from cells using Blood and Cell culture kit (QIAGEN), and then subject to qPCR using QuantiTect SYBR Green (QIAGEN). Quantitative PCR was performed using nuclear primers (GAPDH or Tert) and mtDNA primers (mt-CO2, mt-ND2, mt-CO1 and D-loop). Three technical replicates were performed for each biological sample, and the mtDNA abundance of each replicate were normalized against nuclear DNA using the 2-ΔΔCT method.

HdhQ111 cells [2] = experiment: Mitochondrial superoxide production (MitoSOX) in striatal cells; assay type: cell-based, mouse; conditions: relative to TAT
Method: To examine mitochondrial superoxide production, the cells were stained with MitoSOX (Invitrogen, 5 μM for 10 min) at 37° C. The cells were then washed with PBS three times and mounted for the image analysis. At least 150 cells/group were counted and quantitated.

[3] = system: neurons derived from HD patients; experiment: mitoROS (mitoSOX probe) in neurons derived from iPS cells; assay type: cell-based, human
Method: iPS cells from a normal subject and a HD patient (carrying 41 CAG repeats) were differentiated into neurons using the protocol from our previous studies. Briefly, the iPS cells were plated onto 6-well plates precoated with 2.5% Matrigel and allowed to reach 90% confluence in feeder-free medium. For the first 10 days, the cells were treated with SB431542 (10 μM; Tocris Bioscience) and Noggin (100 ng/ml) in Neural Media (NM) containing Neurobasal and DMEM (1:1), B-27 supplement minus vitamin A (50×, Invitrogen), N2 supplement (100×, Invitrogen), GlutaMax (Invitrogen, 100×), FGF2 ([…]) and EGF ([…]), and 100 units/ml penicillin and 100 μg/ml streptomycin). For the next 10 days, the cells were treated with human recombinant Sonic hedgehog (SHH, 200 ng/ml), DKK1 (100 ng/ml) and BDNF (20 ng/ml), and 10 μM Y27632 (Sigma) in neuronal differentiation medium containing Neurobasal and DMEM (1:3), B27, N2, GlutaMax, and PS. Cells were then switched to treatment with BDNF (20 ng/ml), ascorbic acid (200 μM, Sigma-Aldrich), cAMP (0.5 mM, Sigma-Aldrich), and Y27632 (10 μM) in neuronal differentiation medium. All growth factors were purchased from PeproTech (Rocky Hill, NJ, USA). […]
To examine mitochondrial superoxide production, the cells were stained with MitoSOX (Invitrogen, 5 μM for 10 min) at 37° C. […] At least 150 cells/group were counted and quantitated.

HD R6/2 mice = experiment: Body weight, survival and behavior in HD R6/2 mice; assay type: in vivo, mouse
Method: Male R6/2 mice and their wild-type (WT) littermates (5 weeks old) were purchased from Jackson Laboratories [Bar Harbor, ME; B6CBA-TgN (HD exon1) 62; JAX stock number: 006494]. These mice (C57BL/6 and CBA genetic background) are transgenic for the 5′ end of the human HD gene carrying 100-150 glutamine (CAG) repeats.
Systemic peptide treatment in HD mice. All randomization and peptide treatments were prepared by an experimenter not associated with behavioral and neuropathology analysis. Male R6/2 mice (Tg) and their age-matched wild-type littermates (Wt) (6-week-old) were implanted with a 28-day osmotic pump (Alzet, Cupertino CA, Model 2004) containing TAT control peptide or DA1 peptide, which delivered peptides at a rate of 1 mg/kg/day. Male YAC128 mice (Tg) and their age-matched wild-type littermates (WT) were treated with TAT control peptide or DA1 peptide (1 mg/kg/day) by Alzet osmotic pump starting from the age of 3 months. The pump was replaced once every month.
Gross locomotor activity was assessed in R6/2 mice and age-matched wild-type littermates at the ages of 12 weeks, and in YAC128 mice and age-matched wildtype littermates at the ages of 2, 3, 6, 9, and 12 months. The mice were placed in the center of an activity chamber (Omnitech Electronics, Inc) and allowed to explore while being tracked by an automated beam system (Vertax, Omnitech Electronics Inc). Distance moved, horizontal and vertical activities were recorded. In R6/2 mice and wildtype littermates, one-hour locomotor activity was conducted. In YAC128 mice and wildtype littermates, 24 h of locomotor activity analysis was performed.
Hindlimb clasping was assessed with the tail suspension test once a week from the ages 8 to 12 weeks in R6/2 mice. The mice were suspended by the tail for 60 s, and the latency for the hindlimbs or all four paws to clasp was recorded using the score system: Clasping over 10 s, score 3; 5-10 s, score 2; 0-5 s, score 1; and 0 s, score 0.
The body weight and survival rate of HD mice and wild-type littermates were recorded throughout the study period.

[4] = R6/2 mice at the age of 12 weeks

Chain of Drp1 (O00429 whole entry): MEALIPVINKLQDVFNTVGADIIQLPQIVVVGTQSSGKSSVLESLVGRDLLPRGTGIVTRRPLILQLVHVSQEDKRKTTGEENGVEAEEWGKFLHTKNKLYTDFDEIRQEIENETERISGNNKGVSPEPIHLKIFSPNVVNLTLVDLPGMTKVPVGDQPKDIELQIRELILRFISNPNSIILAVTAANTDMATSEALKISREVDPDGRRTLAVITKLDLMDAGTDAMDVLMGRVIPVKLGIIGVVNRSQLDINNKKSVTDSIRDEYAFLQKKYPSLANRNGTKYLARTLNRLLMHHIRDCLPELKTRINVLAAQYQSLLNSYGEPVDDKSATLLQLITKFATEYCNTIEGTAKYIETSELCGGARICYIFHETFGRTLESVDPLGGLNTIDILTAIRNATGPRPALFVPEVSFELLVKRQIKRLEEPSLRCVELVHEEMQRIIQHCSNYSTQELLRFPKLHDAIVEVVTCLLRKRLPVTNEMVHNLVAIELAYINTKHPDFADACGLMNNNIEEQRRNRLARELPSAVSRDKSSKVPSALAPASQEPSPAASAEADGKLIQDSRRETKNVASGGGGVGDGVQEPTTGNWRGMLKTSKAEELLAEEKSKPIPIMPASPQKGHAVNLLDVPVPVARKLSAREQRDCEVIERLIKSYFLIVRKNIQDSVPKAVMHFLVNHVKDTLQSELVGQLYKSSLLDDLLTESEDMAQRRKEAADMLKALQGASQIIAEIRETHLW

YGRKKRRQRRRGGEDKRKT-NH2 [DA1, YGRKKRRQRRR-GG-EDKRKT-NH2]
Drp1 oligomerization-induced GTPase activity (Drp1): no effects | number of cells with fragmented mitochondria (HdhQ111 cells [1]): reduced | binding of TFAM and mtDNA (TFAM and mtDNA LSP): restored | mtDNA copy number (mtDNA): increased | mitochondrial oxidative stress (mitoROS) (HdhQ111 cells [2]): suppressed | mitoROS [3]: decreased | body weight loss (HD R6/2 mice; HD R6/2 mice, 1 mg/kg/day from 6 weeks, vs TAT): moderately suppressed | survival (HD R6/2 mice; HD R6/2 mice, age 6 to 21 weeks, 1 mg/kg/day): greatly prolonged | horizontal activity (HD R6/2 mice; [4]): increased | total traveled distance (HD R6/2 mice; [4]): increased | severity of clasping behavior (HD R6/2 mice; R6/2 mice, four-week observation period): reduced
